Test results taken from the SangsterLogP compilation.

test: method code SF-AS, from DOI: 10.1002/zfch.19810210618

Question: Which logP does the source give for `NNC(=O)Nc1ccccc1Br` here?
Answer: The logP was 0.66.

Question: Which logP does the source give for `Cc1ccc(NC(=O)NN)cc1` here?
Answer: Its logP is 0.69.

Question: Which logP does the source give for `NNC(=O)Nc1ccc(Cl)cc1` here?
Answer: Its logP is 0.87.

Question: Which logP does the source give for `CCOc1ccc(NC(=O)NN)cc1` here?
Answer: Its logP is 0.53.

Question: Which logP does the source give for `NNC(=O)Nc1cccc(Br)c1` here?
Answer: Its logP is 0.96.

Question: For `COc1cccc(NC(=O)NN)c1`, which logP is on record?
Answer: Its logP is 0.17.

Question: For `NNC(=O)Nc1cc(Cl)ccc1Cl`, which logP is on record?
Answer: Its logP is 1.07.

Question: With `NNC(=O)Nc1ccccc1Cl` as the compound, how does the logP read?
Answer: The logP was 0.45.

Question: Which logP does the source give for `NNC(=O)Nc1cccc(C(=O)O)c1` here?
Answer: The logP was -0.16.

Question: With `NNC(=O)Nc1cccc(Cl)c1` as the compound, how does the logP read?
Answer: Its logP is 0.83.

Question: With `COc1ccccc1NC(=O)NN` as the compound, how does the logP read?
Answer: Its logP is -0.15.

Question: With `NNC(=O)Nc1cccc2ccccc12` as the compound, how does the logP read?
Answer: The logP was 0.9.

Question: With `NNC(=O)Nc1ccc(Br)cc1` as the compound, how does the logP read?
Answer: Its logP is 1.

Question: For `COc1ccc(NC(=O)NN)cc1`, which logP is on record?
Answer: The logP was 0.17.

Question: For `Cc1cccc(NC(=O)NN)c1`, which logP is on record?
Answer: Its logP is 0.68.

Question: Which logP does the source give for `NNC(=O)Nc1ccc(I)cc1` here?
Answer: The logP was 1.24.

Question: For `NNC(=O)Nc1cccc(O)c1`, which logP is on record?
Answer: Its logP is -0.5.

Question: With `Cc1ccccc1NC(=O)NN` as the compound, how does the logP read?
Answer: The logP was 0.36.

Question: Which logP does the source give for `NNC(=O)Nc1ccc(O)cc1` here?
Answer: Its logP is -0.55.

Question: Which logP does the source give for `NNC(=O)Nc1ccccc1[N+](=O)[O-]` here?
Answer: The logP was -0.47.

Question: With `NNC(=O)Nc1ccccc1O` as the compound, how does the logP read?
Answer: Its logP is 0.33.

Question: With `NNC(=O)Nc1ccc([N+](=O)[O-])cc1` as the compound, how does the logP read?
Answer: Its logP is -0.18.

Question: With `NNC(=O)Nc1ccccc1` as the compound, how does the logP read?
Answer: Its logP is 0.16.

Question: Which logP does the source give for `NNC(=O)Nc1ccc(C(=O)O)cc1` here?
Answer: Its logP is -0.21.

Question: With `NNC(=O)Nc1ccccc1C(=O)O` as the compound, how does the logP read?
Answer: The logP was -0.49.

Question: For `NNC(=O)Nc1cccc([N+](=O)[O-])c1`, which logP is on record?
Answer: Its logP is -0.13.
